Assay results taken from patent publication US20120225777A1, “Azolylmethyloxiranes, Their Use for Controlling Phytopathogenic Fungi and Compositions Comprising Them” (BASF SE, priority 2006, published 2012).

What was measured:
[1] = system: Pyrenophora [syn. Drechslera] teres; assay: Activity against net blotch of barley caused by Pyrenophora teres, 1 day protective application (Pymte P1), greenhouse; assay type: in vivo, Pyrenophora teres on barley; settings: Comparative Example 2, Table 10, barley seedlings, 6 days, untreated 90
Method: (§1) The active compounds were prepared separately or jointly as a stock solution comprising 25 mg of active compound which was made up to 10 ml using a mixture of acetone and/or DMSO and the emulsifier Wettol EM 31 (wetting agent having emulsifying and dispersing action based on ethoxylated alkylphenols) in a volume ratio of solvent/emulsifier of 99:1. The mixture was then made up to 100 ml with water. This stock solution was diluted with the solvent/emulsifier/water mixture described to give the concentration of active compounds stated below.
Leaves of potted barley seedlings were sprayed to runoff point with an aqueous suspension having the active compound concentration stated below. 24 hours after the spray coating had dried on, the test plants were inoculated with an aqueous spore suspension of Pyrenophora [syn. Drechslera] teres, the net blotch pathogen. The test plants were then placed in a greenhouse at temperatures between 20 and 24° C. and at 95 to 100% relative atmospheric humidity. After 6 days, the extent of the development of the disease was determined visually in % infection of the entire leaf area.

Sphaerotheca fuliginea = assay: Activity against mildew on cucumber leaves caused by Sphaerotheca fuliginea, protective application (Sphrfu P1), greenhouse; assay type: in vivo; settings: Comparative Example 1, Table 9, cucumber seedlings, 7 days, untreated 90
Method: as §1
Leaves of potted cucumber seedlings were, at the cotyledon stage, sprayed to runoff point with an aqueous suspension having the active compound concentration stated below. 20 hours after the spray coating had dried on, the plants were inoculated with an aqueous spore suspension of mildew of cucumber (Sphaerotheca fuliginea). The plants were then cultivated in a greenhouse at temperatures between 20 and 24° C. and 60 to 80% relative atmospheric humidity for 7 days. The extent of the mildew development was then determined visually in % infection of the cotyledon area.

## Fc1ccc([C@@]2(Cn3cncn3)O[C@@H]2c2ccccc2Cl)cc1 [Comp. 8 of EP-A 0 196 038]
[1]
  Infection in % at 4 ppm for Pyrnte P1: 90%

## Cc1ccccc1[C@H]1O[C@]1(Cn1cncn1)c1cc(F)c(F)cc1F (racemic) [Compound 8.7]
Sphaerotheca fuliginea
  Infection in % at 63 ppm for Sphrfu P1: 0%

## Cc1ccccc1[C@H]1O[C@]1(Cn1cncn1)c1ccc(F)cc1F [B 255 from EP-A 0 421 125]
Sphaerotheca fuliginea
  Infection in % at 63 ppm for Sphrfu P1: 90%

## Fc1cc(F)c([C@@]2(Cn3cncn3)O[C@@H]2c2ccccc2Cl)cc1F (racemic) [Compound 8.6]
[1]
  Infection in % at 4 ppm for Pyrnte P1: 40%
